≈ marks a conversion by molar mass, not a printed value. Calls of active or inactive are those of the source. The calls are words filed in the database; no cut-off is given here.
Legend:
Micrococcus luteus = assay: Antibacterial activity against Micrococcus luteus MTC 2470 after 24 hrs by well diffusion method; assay type: functional
Pseudomonas aeruginosa = assay: Antibacterial activity against Pseudomonas aeruginosa MTCC 2453 after 24 hrs by well diffusion method; assay type: functional
Staphylococcus aureus [1] = assay: Antibacterial activity against Staphylococcus aureus MTCC 96 after 24 hrs by well diffusion method; assay type: functional
Bacillus subtilis = assay: Antibacterial activity against Bacillus subtilis MTCC 121 after 24 hrs by well diffusion method; assay type: functional
A549 = assay: Cytotoxicity against human A549 cells by MTT assay; assay type: functional, cell-based; details: Homo sapiens, A549; read-out: IC50
DU-145 = assay: Cytotoxicity against human DU145 cells by MTT assay; assay type: functional, cell-based; details: Homo sapiens, DU-145; read-out: IC50
Escherichia coli = assay: Antibacterial activity against Escherichia coli MTCC 739 after 24 hrs by well diffusion method; assay type: functional
MCF7 = assay: Cytotoxicity against human MCF7 cells by MTT assay; assay type: functional, cell-based; details: Homo sapiens, MCF7; read-out: IC50
HeLa = assay: Cytotoxicity against human HeLa cells by MTT assay; assay type: functional, cell-based; details: Homo sapiens, HeLa; read-out: IC50
Raoultella planticola = assay: Antibacterial activity against Klebsiella planticola MTCC 530 after 24 hrs by well diffusion method; assay type: functional
Staphylococcus aureus [2] = assay: Antibacterial activity against Staphylococcus aureus MLS16 MTCC 2940 after 24 hrs by well diffusion method; assay type: functional

For `CC(C)C[C@@H](NC(=S)NCc1ccccc1)c1nc2ccccc2[nH]1`, the MIC (Micrococcus luteus) was “inactive”, the MIC (Pseudomonas aeruginosa) was “inactive” and the MIC (Staphylococcus aureus [1]) was “inactive”. The MIC (Bacillus subtilis) was “inactive”, the IC50 (A549) was 22.4 µM and the IC50 (DU-145) was 21.2 µM. For the same molecule, the MIC (Escherichia coli) was “inactive”, the IC50 (MCF7) was 18.2 µM and the IC50 (HeLa) was 21.2 µM. The MIC (Raoultella planticola) was “inactive” and the MIC (Staphylococcus aureus [2]) was “inactive”.

In the case of `CC(C)[C@@H](NC(=S)NCc1ccccc1)c1nc2ccccc2[nH]1`, the MIC (Micrococcus luteus) is reported as “inactive”, the MIC (Pseudomonas aeruginosa) is reported as “inactive” and the MIC (Staphylococcus aureus [1]) is reported as “inactive”. The MIC (Bacillus subtilis) was “inactive”, the IC50 (A549) was 11.3 µM and the IC50 (DU-145) was 17.3 µM. The MIC (Escherichia coli) was “inactive”, the IC50 (MCF7) was 11.1 µM and the IC50 (HeLa) was 12.3 µM. For the same molecule, the MIC (Raoultella planticola) was “inactive” and the MIC (Staphylococcus aureus [2]) was “inactive”.

`CC(C)[C@H](NC(=S)NCc1ccccc1)c1nc2ccccc2[nH]1` gave an MIC (Micrococcus luteus; MTC 2470, 24 h) of over 200 µg/mL, an MIC (Pseudomonas aeruginosa; MTCC 2453, 24 h) of over 200 µg/mL and an MIC (Staphylococcus aureus [1]; MTCC 96, 24 h) of 12.5 µg/mL (≈ 36.9 µM). It also gave an MIC (Bacillus subtilis; MTCC 121, 24 h) of 12.5 µg/mL (≈ 36.9 µM), an IC50 (A549) of 56.1 µM and an IC50 (DU-145) of 48.5 µM. It also gave an MIC (Escherichia coli; MTCC 739, 24 h) of over 200 µg/mL, an IC50 (MCF7) of 57.8 µM and an IC50 (HeLa) of 49.9 µM. It also gave an MIC (Raoultella planticola; MTCC 530, 24 h) of over 200 µg/mL and an MIC (Staphylococcus aureus [2]; MLS16 MTCC 2940, 24 h) of over 200 µg/mL.

`CC(C)[C@H](NC(=S)Nc1cc(C(F)(F)F)cc(C(F)(F)F)c1)c1nc2ccccc2[nH]1` was tested, and the MIC (Micrococcus luteus; MTC 2470, 24 h) was 25 µg/mL (≈ 54.3 µM), the MIC (Pseudomonas aeruginosa; MTCC 2453, 24 h) was 6.25 µg/mL (≈ 13.6 µM) and the MIC (Staphylococcus aureus [1]; MTCC 96, 24 h) was 25 µg/mL (≈ 54.3 µM). For the same molecule, the MIC (Bacillus subtilis; MTCC 121, 24 h) was 12.5 µg/mL (≈ 27.1 µM), the IC50 (A549) was 25.1 µM and the IC50 (DU-145) was 26.1 µM. For the same molecule, the MIC (Escherichia coli; MTCC 739, 24 h) was 12.5 µg/mL (≈ 27.1 µM), the IC50 (MCF7) was 24.3 µM and the IC50 (HeLa) was 28.9 µM. For the same molecule, the MIC (Raoultella planticola; MTCC 530, 24 h) was 25 µg/mL (≈ 54.3 µM) and the MIC (Staphylococcus aureus [2]; MLS16 MTCC 2940, 24 h) was 12.5 µg/mL (≈ 27.1 µM).

For `S=C(Nc1ccccc1)N[C@H](Cc1ccccc1)c1nc2ccccc2[nH]1`, the MIC (Micrococcus luteus) was “inactive”, the MIC (Pseudomonas aeruginosa) was “inactive” and the MIC (Staphylococcus aureus [1]) was “inactive”. For the same molecule, the MIC (Bacillus subtilis) was “inactive”, the IC50 (A549) was 16.2 µM and the IC50 (DU-145) was 18.4 µM. The MIC (Escherichia coli) was “inactive”, the IC50 (MCF7) was 9.4 µM and the IC50 (HeLa) was 10.4 µM. The MIC (Raoultella planticola) was “inactive” and the MIC (Staphylococcus aureus [2]) was “inactive”.

Work on `CC(C)C[C@H](NC(=S)Nc1ccccc1)c1nc2ccccc2[nH]1` yielded an MIC (Micrococcus luteus; MTC 2470, 24 h) of over 200 µg/mL, an MIC (Pseudomonas aeruginosa; MTCC 2453, 24 h) of over 200 µg/mL and an MIC (Staphylococcus aureus [1]; MTCC 96, 24 h) of 25 µg/mL (≈ 73.9 µM). For the same molecule, the MIC (Bacillus subtilis; MTCC 121, 24 h) was over 200 µg/mL, the IC50 (A549) was 28.6 µM and the IC50 (DU-145) was 28.9 µM. For the same molecule, the MIC (Escherichia coli; MTCC 739, 24 h) was over 200 µg/mL, the IC50 (MCF7) was 25.8 µM and the IC50 (HeLa) was 29.1 µM. It also gave an MIC (Raoultella planticola; MTCC 530, 24 h) of over 200 µg/mL and an MIC (Staphylococcus aureus [2]; MLS16 MTCC 2940, 24 h) of over 200 µg/mL.
